Results from patent publication US9757457B2, “Use of 2-deoxy-D-glucose to sensitize cancer cells to an agent that activates the extrinsic apoptotic pathway” (The Board of Trustees of the University of Illinois, priority 2013, dated 2017).

Tests used:
HT29 cells = experiment: Tumor cell apoptosis in HT29 colon cancer cells (Annexin V flow cytometry; caspase-3 activation); format: cell-based, human; conditions: for tumor cell apoptosis: HT29 cells, any dose, Annexin V staining, flow cytometry
Protocol: FIG. 2A, HT-29 cells were treated with a general caspase inhibitor (Q-VD-OPh) and simultaneously treated with the indicated compounds. Apoptosis was assessed by Annexin V/PI staining. FIG. 2B, HT-29 cells were stably transfected with CrmA, DN-FADD plasmid constructs (a dominant-negative variant of FAS-associated via death domain protein) or an empty vector. These cell lines, as well as untransfected cells, were then treated with the indicated compounds and apoptosis was assessed by Annexin V/PI staining. n=3, * indicates p<0.05, ** indicates p<0.01, ns indicates p>0.05.
(§1) While this makes TRAIL a promising anti-cancer therapy, there are numerous examples of both inherent and acquired resistance to TRAIL treatment. […] It was posited that this may have been due to either inherent or acquired TRAIL resistance. Therefore, a panel of well-established human colorectal tumor cell lines (HT-29, COLO-205 and SW-620) was analyzed to determine TRAIL sensitivity. […] Therefore, this human cell line was selected for use as a model for in vitro experiments.
To assess the effect of 2DG on HT29 cells, HT29 cells were treated with increasing doses (0-50 mM) of 2DG in vitro.
(§2) To assess the effect of TRAIL on colon (HT29, COLO-205, SW-620), gastric (AGS) and pancreatic (PANC-1) cancer cell lines, cells were treated with increasing doses (0, 6.25, 12.5, 25, 50 and 100 ng/mL) of TRAIL in vitro.
To determine the mechanism of apoptosis, HT-29 and SW-620 cells were treated every 6 hours with 2DG, TRAIL or 2DG and TRAIL. […] HT-29 cells were also fractionated into cytoplasmic and membrane-heavy fractions, with COXIV as a marker of the membrane heavy fraction and beta actin as a loading control.
(§3) TRAIL mediates its effects by binding to cell surface death receptors 4 and 5 (DR4, DR5). This initiates the extrinsic apoptosis pathway ultimately resulting in cell death. Therefore, it was determined whether 2DG primes tumor cells to TRAIL by altering DR expression in HT29 cells. […] By comparison, DR4 levels were unchanged by 2DG treatment. In addition, increased surface expression of DR5 correlated with TRAIL sensitivity over time.

DR5 = experiment: Death receptor expression in HT29 cells after 2DG: DR5; format: cell-based, human; conditions: HT29 cells after treatment with 2DG
Protocol: as §3

[1] = clinical trials; cited from earlier work
DR4 = experiment: Death receptor expression in HT29 cells after 2DG: DR4; format: cell-based, human; conditions: HT29 cells after treatment with 2DG
Protocol: as §3

[2] = test system: PANC-1 pancreatic cancer cell line; experiment: Tumor cell apoptosis in PANC-1 pancreatic cancer cell line (Annexin V flow cytometry; caspase-3 activation); format: cell-based; conditions: TRAIL 0-100 ng/mL, any dose, Annexin V staining
Protocol: as §2

COLO-205 = experiment: Tumor cell apoptosis in COLO-205 colon cancer cells (Annexin V flow cytometry); format: cell-based, human; conditions: TRAIL 0-100 ng/mL, any dose, Annexin V staining
Protocol: as §1, §2

[3] = test system: human cancer patients with various tumor histologies; conditions: phase I trial, cited from earlier work
[4] = test system: AGS gastric cancer cell line; experiment: Tumor cell apoptosis in AGS gastric cancer cell line (Annexin V flow cytometry; caspase-3 activation); format: cell-based; conditions: TRAIL 0-100 ng/mL, any dose, Annexin V staining
Protocol: as §2

SW-620 = experiment: Tumor cell apoptosis in SW-620 colon cancer cells (Annexin V flow cytometry; caspase-3 activation); format: cell-based, human; conditions: TRAIL 0-100 ng/mL, any dose, Annexin V staining
Protocol: as §1, §2

OCC1OC(O)CC(O)[C@@H]1O (stereo in doubt) [2DG, 2-deoxy-D-glucose]
tumor cell apoptosis (HT29 cells; 2DG 0-50 mM): ≤ 5%
DR5 mRNA level (DR5): upregulated
DR5 total protein level (DR5): upregulated
tolerability [1]: well-tolerated
DR4 levels (DR4): unchanged

CC(=O)N[C@@H](CS)C(=O)O [N-acetylcysteine]
effect on cytotoxicity of 2DG and oxaliplatin (human colon cancer cells): can abrogate this cytotoxicity

CC(C)[C@H](NC(=O)c1ccc2ccccc2n1)C(=O)N[C@@H](CC(=O)O)C(=O)COc1c(F)cccc1F [Q-VD-OPh]
effect of caspase blockade on anti-tumor effect of 2DG and TRAIL (HT29 cells; HT-29, simultaneous treatment with 2DG and TRAIL, Annexin V/PI staining, FIG. 2A): inhibited the anti-tumor effect of the combination treatment

TRAIL: TNF-related apoptosis-inducing ligand; cytokine that causes apoptosis by binding death receptors DR4 and DR5
tumor cell apoptosis [2]: ≤ 12%
tumor cell apoptosis (COLO-205): ≤ 12%
tolerability [3]: well-tolerated
objective tumor response ([3]; patients with colorectal cancer): none of the patients with colorectal cancer had an objective tumor response
tumor cell apoptosis (HT29 cells; TRAIL 0-100 ng/mL): ≤ 12%
TRAIL sensitivity (TRAIL-induced apoptosis) (HT29 cells; HT-29 cell line, maximal doses): resistance to TRAIL at even maximal doses
tumor cell apoptosis [4]: ≤ 12%
tumor cell apoptosis (SW-620): ≤ 12%
